In US11219214B2, “Benzosultams and analogues and their use as fungicides” (Bayer CropScience Aktiengesellschaft, priority 2016, dated 2022) one finds chromatographic logP and inhibition of growth data, which are given here for 43 molecules.

The conditions of data set [1]: 0.1% aqueous formic acid and acetonitrile, gradient 10% to 95% acetonitrile.
Description: In table 1a, the log P values were determined in accordance with EEC Directive 79/831 Annex V.A8 by HPLC (High Performance Liquid Chromatography) on a reversed-phase column (C 18), using the method described below:
Method C: temperature: 55° C.; mobile phases: 0.1% aqueous formic acid and acetonitrile; linear gradient from 10% acetonitrile to 95% acetonitrile.
If more than one Log P value is available within the same method, all the values are given and separated by “;”.
In the next data set the test system is Leptnosphaeria nodorum. In words: Example C: Leptnosphaeria nodorum in vitro cell test. Type of data set: cell-based. The conditions noted are these: 144 h, liquid culture, 6 days incubation, inhibition of fungal growth, read-out: Efficacy; for inhibition of growth at 20 ppm: 20 ppm of active ingredient. The procedure: Example C: Leptnosphaeria nodorum In Vitro Cell Test • Solvent: dimethyl sulfoxide (DMSO) • Culture medium: 14.6 g anhydrous D-glucose (VWR), 7.1 g Mycological Peptone (Oxoid), 1.4 g granulated Yeast Extract (Merck), QSP 1 liter • Inoculum: spore suspension Active ingredients were solubilized in DMSO and the solution used to prepare the required range of concentrations. […] A spore suspension of L. nodorum was prepared and diluted to the desired spore density. Active ingredients were evaluated for their ability to inhibit spore germination and mycelium growth in liquid culture assay. The compounds were added in the desired concentration to the culture medium with spores. After 6 days incubation, fungi-toxicity of compounds was determined by spectrometric measurement of mycelium growth. Inhibition of fungal growth was determined by comparing the absorbance values in wells containing the active ingredients with the absorbance in control wells without fungicides.

A further data set concerns Pyricularia oryzae. In words: microbe, parasite or virus in culture. The format is cell-based. The following applies: 120 h, read-out: Efficacy, 20 ppm of active ingredient, liquid culture, 5 days incubation, inhibition of fungal growth.
Setting [2] is: Method C: HPLC reversed-phase C 18, 55° C.

Like-named read-outs stand apart in the source and are kept apart here.

In turn, `CC1Cc2ccccc2NS1(=O)=O` (centres unmarked) [3-methyl-3,4-dihydro-1H-2,1-benzothiazine 2,2-dioxide] displayed a chromatographic logP in data set [1] (Method C: 55° C.) of 1.33.
With `COC1N(c2cnc3c(F)cccc3c2)c2ccccc2C1(C)C` (centres unmarked) [CMP1, 8-fluoro-3-(2-methoxy-3,3-dimethyl-2,3-dihydro-1H-indol-1-yl)quinoline, reference compound], in the data set with Leptnosphaeria nodorum, the inhibition of growth at 4 ppm amounted to 0%. Further, the inhibition of growth at 20 ppm with Leptnosphaeria nodorum amounted to 5%; in the data set with Pyricularia oryzae, 7%.
For `CC1(C)c2ccccc2N(c2cnc3c(F)cccc3c2)S1(=O)=O` [I.015, 3-(3,3-dimethyl-2,2-dioxido-2,1-benzothiazol-1(3H)-yl)-8-fluoroquinoline], the chromatographic logP in data set [1] (Method A: 40° C.) worked out at 3.12. Further, in the data set with Leptnosphaeria nodorum, the inhibition of growth at 4 ppm was not below 80%. Moreover, the inhibition of growth at 20 ppm with Leptnosphaeria nodorum and in the data set on Pyricularia oryzae was 90 to 100% in each case.
`O=S1(=O)Cc2ccccc2N1c1cnc2c(F)cccc2c1` [I.018, 3-(2,2-dioxido-2,1-benzothiazol-1(3H)-yl)-8-fluoroquinoline] came in with a chromatographic logP in data set [1] (Method A: 40° C.) of 2.52. Besides, the inhibition of growth at 20 ppm in the data set on Leptnosphaeria nodorum was 90 to 100%.
`CC1(C)C(=O)c2ccccc2N(c2cnc3ccccc3c2)S1(=O)=O` [I.156, 3,3-dimethyl-1-(quinolin-3-yl)-1H-2,1-benzothiazin-4(3H)-one 2,2-dioxide] showed a chromatographic logP in data set [1] (Method C: 55° C.) of 2.93. The inhibition of growth at 20 ppm with Leptnosphaeria nodorum was in the range of 70 to 79%; with Pyricularia oryzae it was 90 to 100%.
Regarding `CC1Cc2ccccc2N(c2cnc3ccccc3c2)S1(=O)=O` (centres unmarked) [I.158, 3-methyl-1-(quinolin-3-yl)-3,4-dihydro-1H-2,1-benzothiazine 2,2-dioxide], the chromatographic logP in data set [1] (Method C: 55° C.) turned out to be 2.58.
`O=C1CS(=O)(=O)N(c2cnc3ccccc3c2)c2ccccc21` [I.159, 1-(quinolin-3-yl)-1H-2,1-benzothiazin-4(3H)-one 2,2-dioxide]: the chromatographic logP in data set [1] (Method C: 55° C.) is 2.28.
The molecule `CC1Cc2ccccc2N(c2cc3ccccc3[n+]([O-])c2)S1(=O)=O` (centres unmarked) [I.162, 3-methyl-1-(1-oxidoquinolin-3-yl)-3,4-dihydro-1H-2,1-benzothiazine 2,2-dioxide] registered a chromatographic logP in data set [1] (Method C: 55° C.) of 1.81. Further, the inhibition of growth at 20 ppm in the data set on Leptnosphaeria nodorum and in the data set on Pyricularia oryzae was 90 to 100% each time.
Regarding `CC1(C)C(F)(F)c2ccccc2N(c2cnc3ccccc3c2)S1(=O)=O` [I.163, 4,4-difluoro-3,3-dimethyl-1-(quinolin-3-yl)-3,4-dihydro-1H-2,1-benzothiazine 2,2-dioxide], the chromatographic logP in data set [1] (Method C: 55° C.) was determined as 3.25. Moreover, the inhibition of growth at 20 ppm is 90 to 100% with Leptnosphaeria nodorum and 80 to 89% with Pyricularia oryzae.
`CC1(C)CS(=O)(=O)N(c2cnc3ccccc3c2)c2ccccc21` [I.166, 4,4-dimethyl-1-(quinolin-3-yl)-3,4-dihydro-1H-2,1-benzothiazine 2,2-dioxide]: the chromatographic logP in data set [1] (Method C: 55° C.) amounted to 2.88. Moreover, the inhibition of growth at 20 ppm in the data set on Pyricularia oryzae fell in the range of 90 to 100%.
On to `CC1(C)c2ccccc2N(c2cnc3ccccc3c2)S(=O)(=O)C1(C)C` [I.172, 3,3,4,4-tetramethyl-1-(quinolin-3-yl)-3,4-dihydro-1H-2,1-benzothiazine 2,2-dioxide], for which the chromatographic logP in data set [1] (Method C: 55° C.) is 3.85. The inhibition of growth at 20 ppm in the data set on Leptnosphaeria nodorum and with Pyricularia oryzae was 90 to 100% each time.
In data set [1] (Method C: 55° C.), `CC1C(C)(C)c2ccccc2N(c2cnc3ccccc3c2)S1(=O)=O` (centres unmarked) [I.173, 3,4,4-trimethyl-1-(quinolin-3-yl)-3,4-dihydro-1H-2,1-benzothiazine 2,2-dioxide] had a chromatographic logP of 3.53. For the same molecule, the inhibition of growth at 20 ppm in the data set with Leptnosphaeria nodorum and in the data set with Pyricularia oryzae was 90 to 100% in each case.
On to `CC1(O)c2ccccc2N(c2cnc3ccccc3c2)S(=O)(=O)C1(C)C` (centres unmarked) [I.213, 3,3,4-trimethyl-1-(quinolin-3-yl)-3,4-dihydro-1H-2,1-benzothiazin-4-ol 2,2-dioxide], for which the chromatographic logP in data set [1] (Method C: 55° C.) and in data set [1] (setting [2]) was 2.46 in each case. For the same molecule, the inhibition of growth at 20 ppm with Leptnosphaeria nodorum and in the data set on Pyricularia oryzae was 80 to 89% in each case.
On to `C=C1c2ccccc2N(c2cnc3c(F)c(F)ccc3c2)S(=O)(=O)C1(C)C` [I.219, 1-(7,8-difluoroquinolin-3-yl)-3,3-dimethyl-4-methylene-3,4-dihydro-1H-2,1-benzothiazine 2,2-dioxide], for which the chromatographic logP in data set [1] (Method C: 55° C.) and in data set [1] (setting [2]) was 3.34 each time. Further, the inhibition of growth at 20 ppm with Leptnosphaeria nodorum and with Pyricularia oryzae was 90 to 100% in each case.
Consider `CC1(F)c2ccccc2N(c2cnc3c(F)c(F)ccc3c2)S(=O)(=O)C1(C)C` (centres unmarked) [I.225, 1-(7,8-difluoroquinolin-3-yl)-4-fluoro-3,3,4-trimethyl-3,4-dihydro-1H-2,1-benzothiazine 2,2-dioxide], for which the chromatographic logP in data set [1] (Method C: 55° C.) and in data set [1] (setting [2]) was 3.6 each time. The inhibition of growth at 20 ppm in the data set on Leptnosphaeria nodorum and with Pyricularia oryzae was 90 to 100% throughout.
Regarding `O=C1c2ccccc2N(c2cnc3ccccc3c2)S(=O)(=O)C1(Cl)Cl` [I.239, 3,3-dichloro-1-(quinolin-3-yl)-1H-2,1-benzothiazin-4(3H)-one 2,2-dioxide], the chromatographic logP in data set [1] (Method C: 55° C.) and in data set [1] (setting [2]) was 3.49 throughout.
Take `O=S1(=O)CC(=NOCc2ccccc2)c2ccccc2N1c1cnc2ccccc2c1` [I.241, N-(benzyloxy)-1-(quinolin-3-yl)-1H-2,1-benzothiazin-4(3H)-imine 2,2-dioxide]: the chromatographic logP in data set [1] (Method C: 55° C.) and in data set [1] (setting [2]) was 3.94 throughout. Further, the inhibition of growth at 20 ppm in the data set on Pyricularia oryzae was 70 to 79%.
`CC1(OCc2ccccc2)c2ccccc2N(c2cnc3ccccc3c2)S(=O)(=O)C1(C)C` (centres unmarked) [I.250, 4-(benzyloxy)-3,3,4-trimethyl-1-(quinolin-3-yl)-3,4-dihydro-1H-2,1-benzothiazine 2,2-dioxide] had a chromatographic logP in data set [1] (Method C: 55° C.) of 4.04. Further, the inhibition of growth at 20 ppm with Leptnosphaeria nodorum lay within 90 to 100%; in the data set on Pyricularia oryzae, 80 to 89%.
Turning to `FC(F)(F)c1cccc2cc(I)cnc12` [II.01A], the chromatographic logP in data set [1] (Method A: 40° C.) was determined as 3.11.
`Fc1c(Cl)ccc2cc(I)cnc12` [II.02A]: the chromatographic logP in data set [1] (Method A: 40° C.) is 3.37.
The same measure, in the same setting: next, `Cc1ccc2cc(I)cnc2c1F` [II.03A]: 3.11.
The same measure, in the same setting: then `N#Cc1ccc2ncc(I)cc2c1` [II.04A], with 2.5; and `Fc1cc(F)c2ncc(I)cc2c1` [II.05A], with 2.88; and `Fc1ccc(F)c2ncc(I)cc12` [II.06A], with 2.94.
On the same count and under the same terms, then `Clc1ccc2cc(I)cnc2c1Cl` [II.07A], with 3.83.
`Fc1cc2cc(I)cnc2cc1F` [II.08A] gave a chromatographic logP in data set [1] (Method A: 40° C.) of 3.15.
Same read-out and setting: next, `Fc1cc(Cl)cc2cc(I)cnc12` [II.09A]: 3.15; `Cc1ccc(F)c2ncc(I)cc12` [II.10A]: 3.06; `N#Cc1cccc2cc(I)cnc12` [II.11A]: 2.54.
On the same count and under the same terms, next, `Fc1cc(F)c2cc(I)cnc2c1` [II.12A]: 3.31; `O=S1(=O)Cc2c(F)cccc2N1` [III.01A]: 1.34.
With `O=S1(=O)Cc2c(cccc2C(F)(F)F)N1` [III.02A], the chromatographic logP in data set [1] (Method A: 40° C.) was found to be 1.99.
Still for that read-out and setting: next, `O=S1(=O)Cc2cc(C(F)(F)F)ccc2N1` [III.03A]: 1.95; `O=S1(=O)Cc2c(cccc2OC(F)(F)F)N1` [III.04A]: 2.11.
On the same count and under the same terms, next, `N#Cc1cccc2c1CS(=O)(=O)N2` [III.05A]: 1.08.
On to `CC1(C)Cc2ccccc2NS1(=O)=O` [III.06A], for which the chromatographic logP in data set [1] (Method C: 55° C.) worked out at 1.6.
Still for that read-out and setting: then `O=S1(=O)Nc2ccccc2CC12CC2` [III.07A], with 1.49.
On the same count and under the same terms, next, `O=S1(=O)CCCc2ccccc2N1` [IIIc.02, 1,3,4,5-tetrahydro-2,1-benzothiazepine 2,2-dioxide]: 1.2.
On the same count and under the same terms, next, `O=S1(=O)N(Cc2ccccc2)c2ccccc2CC12CC2` [IV.01A]: 3.19; `O=S1(=O)C=CCc2ccccc2N1Cc1ccccc1` [V.01, 1-benzyl-1,5-dihydro-2,1-benzothiazepine 2,2-dioxide]: 6.01; `CC(C)(CS(=O)(=O)Nc1cnc2ccccc2c1)c1ccccc1Br` [VIIIa.18, 2-(2-bromophenyl)-2-methyl-N-(quinolin-3-yl)propane-1-sulfonamide]: 2.98.
Regarding `COC(=O)c1ccccc1N(c1cnc2ccccc2c1)S(C)(=O)=O` [Xa.02, methyl 2-[(methylsulfonyl)(quinolin-3-yl)amino]benzoate], the chromatographic logP in data set [1] (Method C: 55° C.) amounted to 2.17.
Same read-out and setting: then `COC(=O)c1ccccc1Nc1cnc2ccccc2c1` [methyl 2-(quinolin-3-ylamino)benzoate], with 2.96.
